PubChem BioAssay AID1963974 (Molecular Pharmacology Branch, DTP, NCI, 2024)

System: 648629-189-R-J1-PDC spheroids with HUVEC/MSC, viability
Assay: Anticancer human tumor 648629-189-R-J1-PDC patient-derived bladder carcinoma cell line growth inhibition [PI3K]
Conditions: for IC50: curve of first compound; for viability, T/C: stronger effect = lower value; active = viability on the fitted dose curve at most 10% of control; inactive = the rest
How it was run: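 Viability of mixed-cell spheroids was determined after exposure to pairwise combinations, one partner being inavolisib, alpelisib, duvelisib or copanlisib. Highest tested concentration matched clinical Cmax where known and 10 microM where not, descending in half-log steps.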

[1] = second compound 0.00316 µM, first compound 0.0316 µM
[2] = second compound 0.00316 µM, first compound 0.1 µM
[3] = second compound 0.00316 µM, first compound 0.316 µM
[4] = second compound 0.00316 µM, first compound 1 µM
[5] = second compound 0.00316 µM, first compound 3.16 µM
[6] = second compound 0.00316 µM, first compound 10 µM
[7] = second compound 0.01 µM, first compound 0.0316 µM
[8] = second compound 0.01 µM, first compound 0.1 µM
[9] = second compound 0.01 µM, first compound 0.316 µM
[10] = second compound 0.01 µM, first compound 1 µM
[11] = second compound 0.01 µM, first compound 3.16 µM
[12] = second compound 0.01 µM, first compound 10 µM
[13] = second compound 0.0316 µM, first compound 0.0316 µM
[14] = second compound 0.0316 µM, first compound 0.1 µM
[15] = second compound 0.0316 µM, first compound 0.316 µM
[16] = second compound 0.0316 µM, first compound 1 µM
[17] = second compound 0.0316 µM, first compound 3.16 µM
[18] = second compound 0.0316 µM, first compound 10 µM
[19] = second compound 0.1 µM, first compound 0.0316 µM
[20] = second compound 0.1 µM, first compound 0.1 µM
[21] = second compound 0.1 µM, first compound 0.316 µM
[22] = second compound 0.1 µM, first compound 1 µM
[23] = second compound 0.1 µM, first compound 3.16 µM
[24] = second compound 0.1 µM, first compound 10 µM
[25] = second compound 0.316 µM, first compound 0.0316 µM
[26] = second compound 0.316 µM, first compound 0.1 µM
[27] = second compound 0.316 µM, first compound 0.316 µM
[28] = second compound 0.316 µM, first compound 1 µM
[29] = second compound 0.316 µM, first compound 3.16 µM
[30] = second compound 0.316 µM, first compound 10 µM
[31] = second compound 1 µM, first compound 0.0316 µM
[32] = second compound 1 µM, first compound 0.1 µM
[33] = second compound 1 µM, first compound 0.316 µM
[34] = second compound 1 µM, first compound 1 µM
[35] = second compound 1 µM, first compound 3.16 µM
[36] = second compound 1 µM, first compound 10 µM
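Also: spheroids exposed to agents for seven days before reading.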
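For viability, T/C in this document: percent of vehicle control luminescence where 100% = DMSO treated spheroids.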

CC1(C)CCC(CN2CCN(c3ccc(C(=O)NS(=O)(=O)c4ccc(NCC5CCOCC5)c([N+](=O)[O-])c4)c(Oc4cnc5[nH]ccc5c4)c3)CC2)=C(c2ccc(Cl)cc2)C1 + COc1c(OCCCN2CCOCC2)ccc2c3n(c(=NC(=O)c4cnc(N)nc4)nc12)CCN3
< 0.0316 µM: IC50 (second compound 0.316 µM) | IC50 (second compound 1 µM)
> 10 µM: IC50 (second compound 0.00316 µM) | IC50 (second compound 0.01 µM) | IC50 (second compound 0.0316 µM) | IC50 (second compound 0.1 µM)
active: viability, T/C [31] 4.02% | viability, T/C [32] 3.65% | viability, T/C [33] 4.06% | viability, T/C [34] 3.2% | viability, T/C [35] 3.26% | viability, T/C [36] 2.9%
inactive: viability, T/C [1] 107% | viability, T/C [2] 97.6% | viability, T/C [3] 119% | viability, T/C [4] 108% | viability, T/C [5] 86.5% | viability, T/C [6] 98.2% | viability, T/C [7] 104% | viability, T/C [8] 106% | viability, T/C [9] 106% | viability, T/C [10] 91.2% | viability, T/C [11] 91% | viability, T/C [12] 102% | viability, T/C [13] 97% | viability, T/C [14] 99.8% | viability, T/C [15] 114% | viability, T/C [16] 89.5% | viability, T/C [17] 92.7% | viability, T/C [18] 102% | viability, T/C [19] 65.7% | viability, T/C [20] 68.8% | viability, T/C [21] 65.8% | viability, T/C [22] 63.8% | viability, T/C [23] 59.3% | viability, T/C [24] 58.4% | viability, T/C [25] 24.1% | viability, T/C [26] 22.1% | viability, T/C [27] 23.5% | viability, T/C [28] 19.9% | viability, T/C [29] 23.7% | viability, T/C [30] 19.6%

CCCS(=O)(=O)Nc1ccc(F)c(C(=O)c2c[nH]c3ncc(-c4ccc(Cl)cc4)cc23)c1F + COc1c(OCCCN2CCOCC2)ccc2c3n(c(=NC(=O)c4cnc(N)nc4)nc12)CCN3
1.76 µM: IC50 (second compound 0.1 µM)
< 0.0316 µM: IC50 (second compound 0.316 µM) | IC50 (second compound 1 µM)
5.39 µM: IC50 (second compound 0.00316 µM)
inactive: viability, T/C [1] 117% | viability, T/C [2] 96.9% | viability, T/C [3] 92.4% | viability, T/C [4] 100% | viability, T/C [5] 92.7% | viability, T/C [7] 89.8% | viability, T/C [8] 87.2% | viability, T/C [9] 100% | viability, T/C [10] 96.4% | viability, T/C [11] 82.5% | viability, T/C [13] 85.8% | viability, T/C [14] 85.3% | viability, T/C [15] 87.8% | viability, T/C [16] 82.5% | viability, T/C [17] 66.4% | viability, T/C [19] 55.4% | viability, T/C [20] 62.3% | viability, T/C [21] 54% | viability, T/C [22] 60.4% | viability, T/C [23] 42.1% | viability, T/C [25] 22.4% | viability, T/C [26] 19.5% | viability, T/C [27] 18.3% | viability, T/C [28] 21.9% | viability, T/C [29] 16%
4.21 µM: IC50 (second compound 0.0316 µM)
4.98 µM: IC50 (second compound 0.01 µM)
active: viability, T/C [6] 0.51% | viability, T/C [12] 0.3% | viability, T/C [18] 0.81% | viability, T/C [24] 1.55% | viability, T/C [30] 2.22% | viability, T/C [31] 4.16% | viability, T/C [32] 3.42% | viability, T/C [33] 3.84% | viability, T/C [34] 3.92% | viability, T/C [35] 3.43% | viability, T/C [36] 0.43%

C[C@@H](NC(=O)c1ncnc(N)c1Cl)c1ncc(C(=O)Nc2cc(C(F)(F)F)c(Cl)cn2)s1 + COc1c(OCCCN2CCOCC2)ccc2c3n(c(=NC(=O)c4cnc(N)nc4)nc12)CCN3
> 10 µM: IC50 (second compound 0.00316 µM) | IC50 (second compound 0.01 µM) | IC50 (second compound 0.0316 µM) | IC50 (second compound 0.1 µM)
active: viability, T/C [31] 4.31% | viability, T/C [32] 4.06% | viability, T/C [33] 3.53% | viability, T/C [34] 4.37% | viability, T/C [35] 4.83% | viability, T/C [36] 6.55%
inactive: viability, T/C [1] 105% | viability, T/C [2] 106% | viability, T/C [3] 103% | viability, T/C [4] 107% | viability, T/C [5] 112% | viability, T/C [6] 116% | viability, T/C [7] 99.9% | viability, T/C [8] 111% | viability, T/C [9] 90.4% | viability, T/C [10] 101% | viability, T/C [11] 128% | viability, T/C [12] 113% | viability, T/C [13] 95.8% | viability, T/C [14] 93.8% | viability, T/C [15] 109% | viability, T/C [16] 94.9% | viability, T/C [17] 104% | viability, T/C [18] 90% | viability, T/C [19] 66.6% | viability, T/C [20] 70.3% | viability, T/C [21] 60.8% | viability, T/C [22] 65.2% | viability, T/C [23] 67.3% | viability, T/C [24] 68.9% | viability, T/C [25] 23.6% | viability, T/C [26] 21.7% | viability, T/C [27] 19.4% | viability, T/C [28] 27.9% | viability, T/C [29] 26.4% | viability, T/C [30] 25.8%
< 0.0316 µM: IC50 (second compound 0.316 µM) | IC50 (second compound 1 µM)
